Assay results published in patent US11052028B2, “Process for depigmenting keratin materials using thiopyridinone compounds” (L'OREAL, priority 2010, dated 2021).
Entries after “also recorded” stand apart in the source; their conditions may differ.

Columns and labels:
[1] = test system: coculture of keratinocytes and melanocytes; assay: Inhibitory activity on melanin synthesis (constitutive melanogenesis), ratio of thiouracil incorporation to leucine incorporation; assay type: cell-based; conditions: for IC50: read-out: IC50 (concentration for which 50% of the melanin synthesis is inhibited); for efficacy in inhibiting melanogenesis compared with known depigmenting compounds: conclusion in words from the coculture test
Protocol: (§1) The modulatory effect of each compound on melanogenesis was measured according to the method described in FR-A-2734825 and also in the article by R. Schmidt, P. Krien and M. Regnier, Anal. Bichem., 235(2), 113-18,1996. This test is carried out on a coculture of keratinocytes and melanocytes.
(§2) For the compounds tested, the following were determined: • the cytotoxicity, by estimating leucine incorporation, • the inhibitory activity on melanin synthesis, by estimating the ratio of thiouracil incorporation to leucine incorporation, relative to 100% of the control (the control corresponds to the test carried out without test compound). The IC50 values (concentration for which 50% of the melanin synthesis is inhibited) were determined.
(§3) The test was also carried out with arbutin, niacinamide and kojic acid, which are known depigmenting compounds.

[2] = test system: coculture of keratinocytes and melanocytes; assay: Cytotoxicity on coculture, estimated by leucine incorporation; assay type: cell-based
Protocol: as §1, §2, §3

[3] = ratio of thiouracil to leucine incorporation, relative to 100% of the control, coculture of keratinocytes and melanocytes

| Structure (SMILES) | IC50 [1, 3] [µM] | IC50 (concentration for which 50% of the melanin synthesis is inhibited) [1, 3] | Cytotoxicity on coculture [2] | efficacy in inhibiting melanogenesis compared with known depigmenting compounds [1] |
| --- | --- | --- | --- | --- |
| CCNC(=O)c1ccc[nH]c1=S [Compound 2, N-ethyl-2-thioxo-1,2-dihydropyridine-3-carboxamide] | 4.9 | – | Non-cytotoxic | more effective than arbutin, kojic acid and niacinamide; also recorded: the most effective compound |
| CCCCCNC(=O)c1ccc[nH]c1=S [Compound 7, N-pentyl-2-thioxo-1,2-dihydropyridine-3-carboxamide] | 32 | – | Non-cytotoxic | more effective than arbutin, kojic acid and niacinamide |
| O=C(NC1CCCCC1)c1ccc[nH]c1=S [Compound 12, N-cyclohexyl-2-thioxo-1,2-dihydropyridine-3-carboxamide] | 37 | – | Non-cytotoxic | more effective than arbutin, kojic acid and niacinamide |
| O=C(NCCO)c1ccc[nH]c1=S [Compound 19, N-(2-hydroxyethyl)-2-thioxo-1,2-dihydropyridine-3-carboxamide] | 410 | – | Non-cytotoxic | more effective than arbutin, kojic acid and niacinamide |
| O=C(NCC(O)CO)c1ccc[nH]c1=S (stereo not drawn) [Compound 21, N-(2,3-dihydroxypropyl)-2-thioxo-1,2-dihydropyridine-3-carboxamide] | 128 | – | Non-cytotoxic | more effective than arbutin, kojic acid and niacinamide |
| CCN(CC)C(=O)c1ccc[nH]c1=S [Compound 27, N,N-diethyl 2-mercaptonicotinamide] | 29 | – | Non-cytotoxic | more effective than arbutin, kojic acid and niacinamide |

More lines, main results first:

| IC50 [1, 3] [µM] | IC50 (concentration for which 50% of the melanin synthesis is inhibited) [1, 3] | Structure (SMILES) | Cytotoxicity on coculture [2] | efficacy in inhibiting melanogenesis compared with known depigmenting compounds [1] |
| --- | --- | --- | --- | --- |
| > 500 | – | OC[C@H]1O[C@@H](Oc2ccc(O)cc2)[C@H](O)[C@@H](O)[C@@H]1O [Arbutin, reference compound] | Non-cytotoxic | – |
| 25 | – | COc1ccc(CCNC(=O)c2ccc[nH]c2=S)cc1 [Compound 16, N-[2-(4-methoxyphenyl)ethyl]-2-thioxo-1,2-dihydropyridine-3-carboxamide] | 100 µM | more effective than arbutin, kojic acid and niacinamide |
| > 500 | – | O=c1cc(CO)occ1O [Kojic acid, reference compound] | 100 µM | – |
| – | Not attained | NC(=O)c1cccnc1 [Niacinamide, reference compound] | Non-cytotoxic | – |
